Laboratory results as given in patent publication US12419855B2, “Compositions comprising cannabinoid ions that are dissolved in glycerol” (Natural Extraction Systems, LLC, priority 2019, dated 2025).

Tests used:
chronic insomnia = assay: Efficacy against insomnia in humans; assay type: in vivo; conditions: adult human with chronic insomnia; approximately 25 milligrams in a formulation prepared according to Example 3; self-reported
[1] = test system: active seizures in an epileptic Entlebucher Mountain Dog; assay: Arresting active seizures in canine; assay type: in vivo; conditions: single oral dose of 0.5-1.0 mg/kg in a formulation prepared according to Example 1
[2] = Solubility in ethanol:glycerol; assay type: physicochemical; conditions: in 25:75 by volume ethanol:glycerol; stated as lower than the 25 grams per liter of cannabidiol anion in the formulation
Source text: Cannabidiol is deprotonated in 0.5 molar potassium hydroxide in 190 proof ethanol to produce cannabidiol anion (2-(6-isopropenyl-3-methylcyclohex-2-en-1-yl)-3-hydroxy-5-pentylbenzene-1-oxide).

SMILES: CCCCCc1cc(O)c(CC=C(C)CCC=C(C)C)c(O)c1 [cannabigerol anion, 2-(3,7-dimethylocta-2,6-diene-1-yl)-3-hydroxy-5-pentylbenzene-1-oxide]
- onset time of sedative effect (chronic insomnia): less than five
- sedative effect on insomnia (chronic insomnia): effective at treating the insomnia

SMILES: C=C(C)C1CCC(C)=CC1c1c(O)cc(CCCCC)cc1O (centres unmarked) [cannabidiol anion, 2-(6-isopropenyl-3-methylcyclohex-2-en-1-yl)-3-hydroxy-5-pentylbenzene-1-oxide]
- arrest of active seizures [1]: both consistently and instantaneously arrested active seizures
- seizure duration and severity [1]: reduced seizure duration and severity

SMILES: C=C(C)[C@@H]1CCC(C)=C[C@H]1c1c(O)cc(CCCCC)cc1O [molecular cannabidiol, cannabidiol]
- solubility of molecular cannabidiol [2]: < 25 grams per liter
